PMC7913927, “Leishmanicidal Activity of Betulin Derivatives in Leishmania amazonensis; Effect on Plasma and Mitochondrial Membrane Potential, and Macrophage Nitric Oxide and Superoxide Production” (Microorganisms, 2021)
Where two headings read alike, the source gives them in different places.

Columns and labels:
[1] = system: L. (L.) braziliensis MHOM/BR/LTB300; parameters: method as in PMID 25240731; conditions: cited from earlier work
[2] = system: L. (V.) braziliensis promastigotes, reference strain MHOM/BR/LTB300; conditions: cited from earlier work; for active concentration in L. (L.) braziliensis: reference strain MHOM/BR/LTB300
J774.1 macrophages = experiment: Cytotoxicity (Alamar Blue) in macrophages; assay type: cell-based, murine; conditions: 72 h
Procedure: (§1) In flat-bottom 96-well culture plates, J774.1 macrophages were seeded at a cell density of 5 × 10^4 mL^−1 (10,000 macrophages/well) in 200 µL of RPMIc. After 24 h at 37 °C, 5% CO2, medium was replaced by 180 µL of RPMIc, without phenol red, and increasing concentrations of test compounds in 2-µL volumes. […] At least two independent experiments were performed in duplicate. Based on the inhibition of cell growth caused by the tested compounds, the percentage of growth inhibition compared to untreated cells was calculated. […] Selectivity indices (SI) were calculated, dividing the macrophage CC50 by the parasites GI50 (SI = CC50/GI50).

[3] = system: L. (L.) amazonensis LTB0016 promastigotes; experiment: Promastigote in vitro susceptibility (Alamar Blue/resazurin), reference strain; assay type: cell-based, Leishmania amazonensis; conditions: for growth inhibition / inhibition at 50 µM: LTB0016, 50 µM; for inhibition at 50 µM: read-out: growth inhibition
Procedure: The fluorometric method of Alamar Blue® (resazurin) was used. Promastigotes grown in biphasic agar-blood medium, at the exponential phase of growth, were seeded in flat-bottom 96-well culture plates, at a cell density of 1 × 10^6 parasites mL^−1 (200,000 parasites/well), in 180 µL of RPMIc without phenol red. Subsequently, either a sole concentration (50 µM), or increasing concentrations of compounds or drugs were applied, according to each treatment group, in volumes of 2 µL. Plates were kept at 26 °C, in a humid chamber, for 72 h. […] Live parasites are metabolically active and capable of reducing non-fluorescent resazurin (blue) to fluorescent resorufin (red). Fluorescence intensity is directly proportional to the number of viable cells. […] At least two independent experiments were performed in duplicate. The effect of trivalent antimonial [SbIII, potassium antimonyl tartrate trihydrate, Sigma-Aldrich, (St. Louis, MO, USA)] was included as positive control of the assay.

[4] = Cytotoxicity (Alamar Blue) in macrophages; assay type: cell-based, murine; conditions: mouse, J774.1 macrophages
Procedure: as §1

[5] = system: L. (L.) amazonensis VE98MR promastigotes; experiment: Promastigote in vitro susceptibility (Alamar Blue/resazurin), patient isolate VE98MR; assay type: cell-based, Leishmania amazonensis
Procedure: (§2) The fluorometric method of Alamar Blue® (resazurin) was used. Promastigotes grown in biphasic agar-blood medium, at the exponential phase of growth, were seeded in flat-bottom 96-well culture plates, at a cell density of 1 × 10^6 parasites mL^−1 (200,000 parasites/well), in 180 µL of RPMIc without phenol red. Subsequently, either a sole concentration (50 µM), or increasing concentrations of compounds or drugs were applied, according to each treatment group, in volumes of 2 µL. Plates were kept at 26 °C, in a humid chamber, for 72 h. Resazurin was then added (20 µL of 10% v/v), to reach a final concentration of 250 µM and plates were incubated for an additional 4 h. Live parasites are metabolically active and capable of reducing non-fluorescent resazurin (blue) to fluorescent resorufin (red). Fluorescence intensity is directly proportional to the number of viable cells. The fluorometric reading was carried out using the appropriate wavelengths (ex: 540 nm/em: 580 nm) in a spectrofluorometer Victor^2 Wallac (Perkin Elmer, Turku, Finland). At least two independent experiments were performed in duplicate. The effect of trivalent antimonial [SbIII, potassium antimonyl tartrate trihydrate, Sigma-Aldrich, (St. Louis, MO, USA)] was included as positive control of the assay.

[6] = system: L. (L.) amazonensis VE2000MM promastigotes; experiment: Promastigote in vitro susceptibility (Alamar Blue/resazurin), patient isolate VE2000MM; assay type: cell-based, Leishmania amazonensis
Procedure: as §2

[7] = system: L. (L.) amazonensis LTB0016, VE98MR and VE2000MM promastigotes; experiment: Plasma membrane potential (ΔΨp), bisoxonol fluorescence; assay type: cell-based, Leishmania amazonensis; conditions: VE2000MM promastigotes; valinomycin 1 µM
Procedure: To evaluate the plasma membrane potential (ΔΨp), the fluorescent compound, bisoxonol, bis[1,3-diethylthiobarbituric acid] trimethine oxonol, was used, as well as a method optimized by Padrón-Nieves et al.. Initially, calibration curves for each strain, using increasing concentrations of KCl (0.5 to 75 mM), were performed in the late log growth phase Leishmania promastigotes in the presence of the potassium ionophore valinomycin. By this procedure, fluorescence values could be transformed into millivolts (mV), applying the Nernst equation, ΔΨp = −59.4 log(120/[KCl]). […] After 10 min of incubation in the dark, fluorescence was measured in a Victor^2 Wallac spectrofluorometer (Perkin Elmer, Turku, Finland), using the appropriate wavelengths (ex: 540 nm/em: 580 nm). […] Once the corresponding calibration curve for each strain was obtained, the effect of compounds on the ΔΨp was evaluated. […] After 10 min of incubation in the dark, fluorescence was measured, using the appropriate wavelengths (ex: 540 nm/em: 580 nm). […] To transform the fluorescence values in millivolts (mV), calibration curves were prepared using increasing concentrations of KCl (0.5, 1.15, 2.5, 5, 10, 20, 40, and 75 mM). […]

[8] = LTB0016 promastigotes, 72 h, read-out: Promastigote (GI50) mean
[9] = J774.1 CC50 / LTB0016 promastigote GI50
[10] = Leishmania amazonensis, LTB0016 promastigotes, 72 h, read-out: Promastigote (GI50) mean

## 3,28-diformylbetulin triazolodione [Compound 26]
[1]
  inhibition of parasite migration: inhibited parasite migration at nano and picomolar concentrations
[2]
  GI50: < 1 µM
  active concentration in L. (L.) braziliensis: less than 10 µM
J774.1 macrophages
  CC50: 21.9 µM
[3]
  SI CC50/GI50: 5.68
  growth inhibition: at least 75%
[3]; [8]
  GI50: 3.85 µM

## C=C(C)[C@@H]1CC[C@]2(CO)CC[C@]3(C)[C@H](CC[C@@H]4[C@@]5(C)CC[C@H](O)C(C)(C)[C@@H]5CC[C@]43C)[C@@H]12 [Compound 1, betulin]
[4]
  CC50 at 72 h: 25.1 µM
[3]; [9]
  SI CC50/GI50: 1.30
[3]; Leishmania amazonensis
  inhibition at 50 µM: ≥ 75%
[3]; [10]
  GI50: 19.3 µM

## C=C(C)[C@@H]1CC[C@]2(C(=O)O)CC[C@]3(C)[C@H](CC[C@@H]4[C@@]5(C)CC[C@H](O)C(C)(C)[C@@H]5CC[C@]43C)[C@@H]12 [Compound 11, betulinic acid]
[3]; Leishmania amazonensis
  inhibition at 50 µM: 44%

## C=C(C)[C@@H]1CC[C@]2(C=O)CC[C@]3(C)[C@H](CC[C@@H]4[C@@]5(C)CC[C@H](O)C(C)(C)[C@@H]5CC[C@]43C)[C@@H]12 [Compound 12, betulinic aldehyde]
[3]
  growth inhibition: 67%

## C=C(C)[C@@H]1CC[C@]2(C(=O)O)CC[C@]3(C)[C@H](CC[C@@H]4[C@@]5(C)CC[C@H](O)C(C)(C)[C@@H]5CC[C@]43C)[C@@H]12 [Compound 13]
[3]
  growth inhibition: did not show enough anti-leishmanial activity

## C=C(C)[C@@H]1CC[C@]2(C(=O)O)CC[C@]3(C)[C@H](CC[C@@H]4[C@@]5(C)CCC(=O)C(C)(C)[C@@H]5CC[C@]43C)[C@@H]12 [Compound 14]
[2]
  active concentration in L. (L.) braziliensis: less than 10 µM
[3]
  growth inhibition: did not show enough anti-leishmanial activity

## C=C(C)C1CCC2(C=NO)CCC3(C)C(CCC4C5(C)CCC(O)C(C)(C)C5CCC43C)C12 (stereo not shown) [Compound 17]
[2]
  active concentration in L. (L.) braziliensis: less than 10 µM
J774.1 macrophages
  CC50: 19.3 µM
[3]; [9]
  SI CC50/GI50: 14.23
[3]
  growth inhibition: at least 75%
[3]; [8]
  GI50: 1.35 µM

## [K+].[K+].[O]=[Cr](=[O])([O-])[O][Cr](=[O])(=[O])[O-] [Compound K2Cr2O7, K2Cr2O7]
[5]; data not detailed in the manuscript, parasite stage not stated, read-out: GI50 against K2Cr2O7, VE98MR
  GI50: > 2500 µM
[6]; data not detailed in the manuscript, parasite stage not stated, read-out: GI50 against K2Cr2O7, VE2000MM
  GI50: > 2500 µM
[3]; data not detailed in the manuscript, parasite stage not stated, read-out: GI50 against K2Cr2O7, LTB0016
  GI50: 1060 µM

## CCCCCCCCCCCCCCCCOP(=O)([O-])OCC[N+](C)(C)C [MLF, miltefosine, reference compound]
[6]; Leishmania amazonensis, read-out: GI50 promastigotes VE2000MM
  GI50: 5.13 µM
[3]; [10]
  GI50: 4.17 µM

## O=NO [NaNO2, sodium nitrite]
[5]; data not detailed in the manuscript, parasite stage not stated, read-out: GI50 against NaNO2, VE98MR
  GI50: 3.28 µM
[6]; data not detailed in the manuscript, parasite stage not stated, read-out: GI50 against NaNO2, VE2000MM
  GI50: 4.79 µM
[3]; data not detailed in the manuscript, parasite stage not stated, read-out: GI50 against NaNO2, LTB0016
  GI50: 0.91 µM

## N=C(N)c1ccc(OCCCCCOc2ccc(C(=N)N)cc2)cc1 [PNT, reference compound]
[3]; [8]
  GI50: 0.93 µM

## CC(C)[C@@H]1NC(=O)[C@H](C)OC(=O)[C@@H](C(C)C)NC(=O)[C@@H](C(C)C)OC(=O)[C@H](C(C)C)NC(=O)[C@H](C)OC(=O)[C@@H](C(C)C)NC(=O)[C@@H](C(C)C)OC(=O)[C@H](C(C)C)NC(=O)[C@H](C)OC(=O)[C@@H](C(C)C)NC(=O)[C@@H](C(C)C)OC1=O [valinomycin, reference compound]
[7]
  Effect on plasma membrane potential (ΔΨp), VE2000MM: not sensitive

## potassium antimonyl tartrate trihydrate [SbIII]
[5]; promastigotes, read-out: GI50 promastigotes VE98MR
  GI50: 9.08 µM
[6]; promastigotes, read-out: GI50 promastigotes VE2000MM
  GI50: 13.6 µM
[3]; [8]
  GI50: 5.51 µM
